Measured values reported in ChEMBL document CHEMBL1151469, “Cytotoxic activity of N-chlorotaurine on Acanthamoeba spp” (Antimicrob Agents Chemother, 2008).
pEC50: −log10 of the molar value. Calls of active or inactive are those of the source. The calls are words filed in the database; no cut-off is given here.

How the values were obtained:
[1] = system: Acanthamoeba polyphaga; experiment: Amoebicidal activity against Trophozoites of Acanthamoeba polyphaga 5SU in phosphate buffered saline at pH 7 after 6 hrs by hemocytometer using trypan blue stain; format: functional, organism-based
[2] = system: Acanthamoeba polyphaga; experiment: Amoebicidal activity against Trophozoites of Acanthamoeba polyphaga 5SU assessed as log reduction in cell count at 10 mM in phosphate buffered saline at pH 5 after 1 hr by hemocytometer using trypan blue staining; format: functional, organism-based
[3] = system: Acanthamoeba hatchetti; experiment: Amoebicidal activity against Trophozoites of Acanthamoeba hatchetti 11DS assessed as killing time at 55 mM in phosphate buffered saline at pH 7 by hemocytometer using trypan blue stain; format: functional
[4] = system: Acanthamoeba hatchetti; experiment: Amoebicidal activity against Trophozoites of Acanthamoeba hatchetti 11DS at 55 mM in phosphate buffered saline at pH 7 after 1 hr by hemocytometer using trypan blue staining in presence of 190 mM ammonium chloride; format: functional, organism-based
[5] = system: Acanthamoeba hatchetti; experiment: Amoebicidal activity against Trophozoites of Acanthamoeba hatchetti 11DS assessed as reduction of killing time at 10 mM in phosphate buffered saline at pH 5 by hemocytometer using trypan blue stain in presence of 160 mM beta-alanine; format: functional
[6] = system: Acanthamoeba polyphaga; experiment: Amoebicidal activity against Trophozoites of Acanthamoeba polyphaga 5SU in peptone yeast extract glucose medium at pH 7 after 6 hrs by hemocytometer using trypan blue stain; format: functional, organism-based
[7] = system: Acanthamoeba hatchetti; experiment: Amoebicidal activity against Trophozoites of Acanthamoeba hatchetti 11DS in phosphate buffered saline at pH 7 after 6 hrs by hemocytometer using trypan blue stain in presence of 34 mM ammonium chloride; format: functional, organism-based
[8] = system: Acanthamoeba hatchetti; experiment: Amoebicidal activity against Trophozoites of Acanthamoeba hatchetti 11DS assessed as log reduction in cell count at 10 mM in phosphate buffered saline after 24 hrs by hemocytometer using trypan blue staining; format: functional, organism-based
[9] = system: Acanthamoeba polyphaga; experiment: Amoebicidal activity against Trophozoites of Acanthamoeba polyphaga 5SU in phosphate buffered saline at pH 7 after 24 hrs by hemocytometer using trypan blue stain in presence of 34 mM ammonium chloride; format: functional, organism-based
[10] = system: Acanthamoeba hatchetti; experiment: Amoebicidal activity against Trophozoites of Acanthamoeba hatchetti 11DS assessed as rounding of the cells at 55 mM in phosphate buffered saline at pH 7 after 15 mins by hemocytometer using trypan blue stain; format: functional, organism-based
[11] = system: Acanthamoeba hatchetti; experiment: Amoebicidal activity against Trophozoites of Acanthamoeba hatchetti 11DS assessed as killing time at 55 mM in peptone yeast extract glucose medium at pH 7 by hemocytometer using trypan blue stain; format: functional
[12] = system: Acanthamoeba hatchetti; experiment: Amoebicidal activity against Trophozoites of Acanthamoeba hatchetti 11DS assessed as killing time at 0.16 M in peptone yeast extract glucose medium at pH 7 by hemocytometer using trypan blue stain; format: functional
[13] = system: Acanthamoeba castellanii; experiment: Amoebicidal activity against Trophozoites of Acanthamoeba castellanii 40AB assessed as log reduction in cell count at 20 mM in peptone yeast extract glucose medium at pH 7 after 24 hrs by hemocytometer using trypan blue stain; format: functional
[14] = system: Acanthamoeba polyphaga; experiment: Amoebicidal activity against excysted trophozoites of Acanthamoeba polyphaga 5SU at 55 mM in peptone yeast extract glucose medium after 24 hrs by hemocytometer using trypan blue stain; format: functional
[15] = system: Acanthamoeba hatchetti; experiment: Amoebicidal activity against Trophozoites of Acanthamoeba hatchetti 11DS assessed as rounding of the cells at 0.16 M in peptone yeast extract glucose medium at pH 7 by hemocytometer using trypan blue stain; format: functional, organism-based
[16] = system: Acanthamoeba polyphaga; experiment: Amoebicidal activity against Trophozoites of Acanthamoeba polyphaga 5SU assessed as complete loss of viability at 55 mM in phosphate buffered saline incubated in xenic agar medium after 14 days by hemocytometer using trypan blue stain in presence of 190 mM ammonium chloride; format: functional, organism-based
[17] = system: Acanthamoeba polyphaga; experiment: Amoebicidal activity against excysted trophozoites of Acanthamoeba polyphaga 5SU at 55 mM in peptone yeast extract glucose medium after 6 days by hemocytometer using trypan blue stain; format: functional
[18] = system: Acanthamoeba polyphaga; experiment: Amoebicidal activity against Trophozoites of Acanthamoeba polyphaga 5SU assessed as killing time at 20 mM in peptone yeast extract glucose medium at pH 7 by hemocytometer using trypan blue stain; format: functional
[19] = system: Acanthamoeba polyphaga; experiment: Amoebicidal activity against Trophozoites of Acanthamoeba polyphaga 5SU assessed as killing time at 0.16 M in peptone yeast extract glucose medium at pH 7 by hemocytometer using trypan blue stain; format: functional
[20] = system: Acanthamoeba polyphaga; experiment: Amoebicidal activity against Trophozoites of Acanthamoeba polyphaga 5SU assessed as log reduction in cell count at 10 mM in phosphate buffered saline at pH 7 after 6 hrs by hemocytometer using trypan blue staining; format: functional, organism-based
[21] = system: Acanthamoeba hatchetti; experiment: Amoebicidal activity against Trophozoites of Acanthamoeba hatchetti 11DS assessed as increase in reduction in cell count at 20 mM in peptone yeast extract glucose medium at pH 7 after 6 hrs by hemocytometer using trypan blue stain in presence of 580 mM ammonium chloride; format: functional, organism-based
[22] = system: Acanthamoeba castellanii; experiment: Amoebicidal activity against Trophozoites of Acanthamoeba castellanii 4CL assessed as log reduction in cell count at 20 mM in peptone yeast extract glucose medium at pH 7 after 24 hrs by hemocytometer using trypan blue stain; format: functional
[23] = system: Acanthamoeba polyphaga; experiment: Amoebicidal activity against Trophozoites of Acanthamoeba polyphaga 5SU assessed as log reduction in cell count at 10 mM in phosphate buffered saline at pH 5 after 1 hr by hemocytometer using trypan blue stain in presence of 160 mM beta-alanine; format: functional, organism-based
[24] = system: Acanthamoeba hatchetti; experiment: Amoebicidal activity against Trophozoites of Acanthamoeba hatchetti 11DS in phosphate buffered saline at pH 7 after 1 hr by hemocytometer using trypan blue stain; format: functional, organism-based
[25] = system: Acanthamoeba castellanii; experiment: Amoebicidal activity against Trophozoites of Acanthamoeba castellanii 4CL assessed as killing time at 10 mM in phosphate buffered saline at pH 7 by hemocytometer using trypan blue stain; format: functional
[26] = system: Acanthamoeba hatchetti; experiment: Amoebicidal activity against Trophozoites of Acanthamoeba hatchetti 11DS assessed as reduction of killing time at 10 mM in phosphate buffered saline at pH 5 by hemocytometer using trypan blue stain in presence of 34 mM ammonium chloride; format: functional, organism-based
[27] = system: Acanthamoeba polyphaga; experiment: Amoebicidal activity against Trophozoites of Acanthamoeba polyphaga 5SU assessed as rounding of the cells at 55 mM in peptone yeast extract glucose medium at pH 7 after 30 mins by hemocytometer using trypan blue stain; format: functional, organism-based
[28] = system: Acanthamoeba hatchetti; experiment: Amoebicidal activity against Trophozoites of Acanthamoeba hatchetti 11DS in peptone yeast extract glucose medium at pH 7 after 24 hrs by hemocytometer using trypan blue stain in presence of 68 mM ammonium chloride; format: functional, organism-based
[29] = system: Acanthamoeba polyphaga; experiment: Amoebicidal activity against Trophozoites of Acanthamoeba polyphaga 5SU assessed as increase in reduction in cell count at 20 mM in peptone yeast extract glucose medium at pH 7 after 6 hrs by hemocytometer using trypan blue stain in presence of 68 mM ammonium chloride; format: functional, organism-based
[30] = system: Acanthamoeba hatchetti; experiment: Amoebicidal activity against Trophozoites of Acanthamoeba hatchetti 11DS assessed as complete loss of viability at 55 mM in phosphate buffered saline after 24 hrs by hemocytometer using trypan blue stain in presence of 190 mM ammonium chloride; format: functional, organism-based
[31] = system: Acanthamoeba polyphaga; experiment: Amoebicidal activity against Trophozoites of Acanthamoeba polyphaga 5SU assessed as rounding of cells at 55 mM in phosphate buffered saline at pH 7 after 15 mins by hemocytometer using trypan blue stain; format: functional, organism-based
[32] = system: Acanthamoeba polyphaga; experiment: Amoebicidal activity against excysted trophozoites of Acanthamoeba polyphaga 5SU at 55 mM in peptone yeast extract glucose medium after 11 days by hemocytometer using trypan blue stain; format: functional
[33] = system: Acanthamoeba hatchetti; experiment: Amoebicidal activity against Trophozoites of Acanthamoeba hatchetti 11DS assessed as log reduction in cell count at 10 mM in phosphate buffered saline at pH 5 after 24 hrs by hemocytometer using trypan blue stain in presence of 34 mM ammonium chloride; format: functional, organism-based

With `O=S(=O)(O)CCNCl` the pEC50 [1] was 2.40, the EC90 [1] was 7.95 mM and the Activity [2] was “Active”. For the same compound, the Activity [3] was 30 min, the Activity [4] was “inactive” and the Activity [5] was 15 h. For the same compound, the pEC50 [6] was 1.93, the pEC50 [7] was 2.28 and the EC90 [7] was 9.13 mM. The Activity [8] was “Active”, the pEC50 [9] was 2.30 and the EC90 [9] was 9.03 mM. For the same compound, the Activity [10] was “Active”, the Activity [11] was 3 h and the Activity [12] was 1 h. The Activity [13] was 2, the Activity [14] was 1000 and the Activity [15] was “Active”. For the same compound, the Activity [16] was “inactive”, the Activity [17] was 18000 and the Activity [18] was 36 h. For the same compound, the Activity [19] was 30 min, the Activity [20] was “Active” and the Activity [21] was “inactive”. For the same compound, the Activity [22] was 2, the Activity [23] was “Active” and the pEC50 [24] was 1.81. The Activity [25] was 36 h, the Activity [26] was “inactive” and the Activity [27] was “Active”. The pEC50 [28] was 1.99, the Activity [29] was “inactive” and the Activity [30] was “Active”. The Activity [31] was “Active”, the Activity [32] was 200000 and the Activity [33] was “inactive”.
